According to patent US8735388B2, “Heterocyclic compounds with affinity to muscarinic receptors” (Abbvie B. V. A., priority 2007, dated 2014):
Where two headings read alike, the source gives them in different places.

Key:
[1] = biological target: T1, Muscarine M4 (GPCR-A-MA-ACH M4) (Homo sapiens, UniProt P08173); experiment: Muscarine M4 cell-based functional assay (CHO cells, Ca2+ - Aequorin luminescence)
T1 construct: expressed in transfected cells; host or cells: CHO cells
T1 sequence (P08173 1-479): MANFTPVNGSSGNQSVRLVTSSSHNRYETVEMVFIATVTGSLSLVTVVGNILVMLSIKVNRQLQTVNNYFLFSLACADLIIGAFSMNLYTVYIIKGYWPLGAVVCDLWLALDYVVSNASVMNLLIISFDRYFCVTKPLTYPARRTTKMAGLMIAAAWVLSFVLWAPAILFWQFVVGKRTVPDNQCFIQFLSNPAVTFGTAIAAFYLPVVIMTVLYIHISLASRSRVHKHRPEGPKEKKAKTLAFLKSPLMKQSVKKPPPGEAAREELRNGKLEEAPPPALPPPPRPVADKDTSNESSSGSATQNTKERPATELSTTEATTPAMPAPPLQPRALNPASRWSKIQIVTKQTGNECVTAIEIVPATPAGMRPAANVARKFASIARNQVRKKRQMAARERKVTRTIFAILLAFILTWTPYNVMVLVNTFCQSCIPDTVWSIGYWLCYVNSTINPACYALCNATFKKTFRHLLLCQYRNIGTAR
Procedure: Compounds were dissolved in DMSO (10 mM) and diluted in assay buffer to test concentration. Prime testing was at 1 μM; for actives in antagonist mode (PI, percent inhibition with respect to reference agonist and blank>30%) as well as actives in agonist mode (PS, percent stimulation with respect to reference agonist and blank>30%) testing was continued at lower concentrations in 10-fold dilutions: 0.1 μM, 0.01 μM, etc.
Cells were incubated with compound and the response indicated was measured.
The results are expressed as a percent of reference agonist values and blanks in the presence of the test compound, percent stimulation for agonist mode; for the antagonist mode (test compound in the presence of reference agonist) as percent inhibition. The EC50 values (concentration causing a half-maximal stimulation of control values), IC50 values (concentration causing a half-maximal inhibition of control values) were determined by non-linear regression analysis of the concentration-response curves using Hill equation curve fitting.

[2] = biological target: T1, Muscarine M4 (GPCR-A-MA-ACH M4); experiment: Muscarine M4 receptor binding, 3H-4DAMP; conditions: human M4, CHO cells, ligand 0.2 nM, 60 min/22° C., read-out: RB Musc. M4 3H-DAMP pKi (converted)
Procedure: (§1) Compounds were dissolved in DMSO (10 mM) and diluted in assay buffer to test concentration. Prime testing was at 10 μM; for actives (PI, percent inhibition with respect to total and non-specific binding >40%) testing was continued at lower concentrations in 10-fold dilutions: 1 μM, 0.1 μM, etc.
(§2) Following incubation of compound with the receptor preparation (from ‘Tissue’) and the Ligand at the time and temperature indicated, the receptor preparations were rapidly filtered under vacuum through glass fibre filters; the filters were washed extensively with an ice-cold buffer using a harvester. Bound radioactivity was measured by scintillation counting using a liquid scintillation cocktail.
(§3) Results were expressed as percentage of total Ligand binding and that of Non Specific Binding, per concentration of Compound tested (duplicates); from the concentration—displacement curves IC50 values were determined by non-linear regression analysis using Hill equation curve fitting. The inhibition constants (Ki) were calculated from the Cheng-Prushoff equation Ki=IC50/(1+L/Kd), where L is the concentration of radioligand in the assay, and Kd the affinity of the radioligand for the receptor. Results were expressed as pKi's, means±SD of at least 2 separate experiments; i.e. outliers (outside+/−1 std of mean) and discrepancies were excluded.

[3] = biological target: T2, Muscarine M1 (GPCR-A-MA-ACH M1) (Homo sapiens, UniProt P11229); experiment: Muscarine M1 receptor binding, 3H-Pirenzepine; conditions: human M1, CHO cells, ligand 2 nM, 60 min/22° C., read-out: RB Musc. M1 3H-Pirenzepine pKi (converted)
T2 construct: expressed in transfected cells; host or cells: CHO cells
T2 sequence (P11229 1-460): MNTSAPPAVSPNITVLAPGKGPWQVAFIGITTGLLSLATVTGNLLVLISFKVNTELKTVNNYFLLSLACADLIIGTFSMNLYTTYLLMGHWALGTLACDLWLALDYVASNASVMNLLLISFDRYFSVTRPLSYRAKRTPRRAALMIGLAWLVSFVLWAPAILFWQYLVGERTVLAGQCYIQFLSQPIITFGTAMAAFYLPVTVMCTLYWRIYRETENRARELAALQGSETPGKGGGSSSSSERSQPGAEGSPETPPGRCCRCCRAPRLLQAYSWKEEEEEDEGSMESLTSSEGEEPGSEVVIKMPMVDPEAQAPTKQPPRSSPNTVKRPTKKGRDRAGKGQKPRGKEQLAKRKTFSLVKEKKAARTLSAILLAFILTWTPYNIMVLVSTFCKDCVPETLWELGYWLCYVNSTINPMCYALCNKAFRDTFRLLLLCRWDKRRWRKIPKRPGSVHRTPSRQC
Procedure: as §1, §2, §3

[4] = biological target: T1, Muscarine M4 (GPCR-A-MA-ACH M4); experiment: Muscarine M4 receptor binding, 3H-Oxotremorine
Procedure: as §1, §2, §3

[5] = biological target: T2, Muscarine M1 (GPCR-A-MA-ACH M1); experiment: Muscarine M1 cell-based functional assay (CHO cells, Ca2+ - FLIPR Fluorimetry); conditions: read-out: Cell funct. Musc. M1 Agonism pEC50 (converted)
[6] = biological target: T3, Muscarine M2 (GPCR-A-MA-ACH M2) (Cavia porcellus, UniProt H0VRN8); experiment: Muscarine M2 functional assay, isolated organ (left atrium, electrically paced), agonist and antagonist mode; design: species or system Guinea Pig
T3 construct: from tissue; host or cells: guinea pig left atrium (electrically paced)
T3 sequence (H0VRN8 1-466): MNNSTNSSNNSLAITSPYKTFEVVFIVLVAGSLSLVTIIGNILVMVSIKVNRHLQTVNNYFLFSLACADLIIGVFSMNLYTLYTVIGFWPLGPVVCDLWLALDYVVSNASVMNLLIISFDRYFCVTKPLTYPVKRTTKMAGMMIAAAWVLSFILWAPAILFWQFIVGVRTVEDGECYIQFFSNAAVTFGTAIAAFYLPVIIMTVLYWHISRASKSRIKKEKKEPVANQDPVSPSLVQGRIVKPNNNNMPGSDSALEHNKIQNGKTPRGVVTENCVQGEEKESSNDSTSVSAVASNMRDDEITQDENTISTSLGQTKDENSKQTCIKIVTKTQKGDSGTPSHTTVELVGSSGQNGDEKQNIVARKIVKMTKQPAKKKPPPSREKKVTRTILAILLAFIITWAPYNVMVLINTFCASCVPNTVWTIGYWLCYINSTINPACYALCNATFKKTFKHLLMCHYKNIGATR

[7] = biological target: T4, Muscarine M3 (GPCR-A-MA-ACH M3) (Cavia porcellus, UniProt H0W1Z3); experiment: Muscarine M3 functional assay, isolated organ (ileum), agonist and antagonist mode; design: species or system Guinea Pig
T4 construct: from tissue; host or cells: guinea pig ileum

[8] = human M4, CHO cells, agonist mode, reference agonist oxotremorine, read-out: Cell funct. Musc. M4 Agonism pEC50 (converted)
[9] = human M4, CHO cells, receptor binding, ligand 6 nM, 30 min/25° C., read-out: RB Musc. M4 3H-Oxotremorine pKi (converted)
[10] = human M1, CHO cells, agonist mode, reference agonist acetylcholine

T4 sequence (H0W1Z3 1-590): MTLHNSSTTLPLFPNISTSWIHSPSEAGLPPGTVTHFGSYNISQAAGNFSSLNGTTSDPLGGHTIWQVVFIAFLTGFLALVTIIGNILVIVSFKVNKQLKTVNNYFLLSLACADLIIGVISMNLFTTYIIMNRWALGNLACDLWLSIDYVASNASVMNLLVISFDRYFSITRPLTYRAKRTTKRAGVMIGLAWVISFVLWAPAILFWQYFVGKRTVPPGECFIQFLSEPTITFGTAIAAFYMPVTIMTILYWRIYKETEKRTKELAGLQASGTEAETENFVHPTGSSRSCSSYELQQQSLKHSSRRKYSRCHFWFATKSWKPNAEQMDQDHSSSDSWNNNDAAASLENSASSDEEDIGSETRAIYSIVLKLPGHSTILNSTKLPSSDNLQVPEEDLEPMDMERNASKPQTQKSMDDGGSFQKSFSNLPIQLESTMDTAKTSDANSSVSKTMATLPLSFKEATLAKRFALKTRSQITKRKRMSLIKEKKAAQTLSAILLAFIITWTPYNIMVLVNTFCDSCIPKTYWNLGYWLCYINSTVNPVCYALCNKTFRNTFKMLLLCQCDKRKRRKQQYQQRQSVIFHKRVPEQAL

Row | SMILES | EC50 [1, 8] | Ki [2] | Ki [3] | Ki [4, 9] | EC50 [5, 10] | Kb [7] | EC50 [1] | Ki [4] | EC50 [5] | Kb [6]
1 | COCCOCCSc1c[nH]nc1C1=CCCN(C)C1 [Compound 22P, 3-{4-[2-(2-Methoxy-ethoxy)-ethylsulfanyl]-1H-pyrazol-3-yl}-1,2,5,6-tetrahydro-1-methylpyridine] | 1.26 µM | 6.31 µM | > 10 µM | 6.31 µM | 0.398 µM | – | – | – | – | –
2 | CCCCCCCC#Cc1c[nH]nc1C1=CCCN(C)C1 [Compound 45C, 3-(4-Non-1-ynyl-1H-pyrazol-3-yl)-1,2,5,6-tetrahydro-1-methylpyridine] | 2 µM | 0.794 µM | 0.794 µM | 0.501 µM | > 1 µM | – | – | – | – | –
3 | CN1CCC=C(c2n[nH]cc2SCCCc2ccccc2)C1 [Compound 22I, 3-[4-(3-Phenyl-propylsulfanyl)-1H-pyrazol-3-yl]-1,2,5,6-tetrahydro-1-methylpyridine] | 0.251 µM | 0.251 µM | 0.794 µM | 0.1 µM | 0.1 µM | – | – | – | – | –
4 | CCCCC#Cc1c[nH]nc1C1=CCCN(C)C1 [Compound 45A, 3-(4-Hex-1-ynyl-1H-Pyrazol-3-yl)-1,2,5,6-tetrahydro-1-methylpyridine] | 0.794 µM | 0.631 µM | 1.58 µM | 0.398 µM | 0.126 µM | – | – | – | – | –
5 | CCCCCC#Cc1c[nH]nc1C1=CCCN(C)C1 [Compound 45B, 3-(4-Hept-1-ynyl-1H-pyrazol-3-yl)-1,2,5,6-tetrahydro-1-methylpyridine] | 0.316 µM | 1.26 µM | 2 µM | 0.501 µM | 0.126 µM | – | – | – | – | –
6 | FC(F)=CCCSc1c[nH]nc1C1CN2CCC1CC2 (stereo not shown) [Compound 49I, 3-[4-(4,4-Difluoro-but-3-enylsulfanyl)-1H-pyrazol-3-yl]-1-azabicyclo[2.2.2]octane] | – | 0.0631 µM | 0.316 µM | – | – | – | 0.02 µM | 0.0126 µM | 0.00316 µM | –
7 | CCCCCc1c[nH]nc1C1=CCCN(C)C1 [Compound 9, 3-(4-Pentyl-1H-pyrazol-3-yl)-1,2,5,6-tetrahydro-1-methylpyridine] | > 10 µM | 0.316 µM | 1.26 µM | 0.398 µM | 0.126 µM | – | – | – | – | –
8 | CCCCCCSc1c[nH]nc1C1=CCCN(C)C1 [Compound 22H, 3-(4-Hexylsulfanyl-1H-pyrazol-3-yl)-1,2,5,6-tetrahydro-1-methylpyridine] | 0.01 µM | 0.0631 µM | 0.2 µM | 0.126 µM | 0.126 µM | – | – | – | – | –
9 | COc1ccccc1CNCCCCCCNCCCCCCCCNCCCCCCNCc1ccccc1OC [Methoctramine, reference compound] | – | – | – | – | – | – | – | – | – | 0.0126 µM
10 | Ic1c[nH]nc1[C@@H]1CN2CCC[C@H]1C2 [Compound 59, endo-6-(4-iodo-1H-pyrazol-3-yl)-1-azabicyclo[3.2.1]octane] | – | 0.1 µM | 1 µM | – | – | – | > 10 µM | 0.2 µM | 0.0794 µM | –
11 | CN1CCC=C(c2n[nH]cc2C#CCCCc2ccccc2)C1 [Compound 45D, 3-[4-(5-Phenyl-pent-1-ynyl)-1H-pyrazol-3-yl]-1,2,5,6-tetrahydro-1-methylpyridine] | 1.26 µM | 0.631 µM | 2 µM | 0.501 µM | 0.794 µM | – | – | – | – | –
12 | CN1CCN(CC(=O)N2c3ccccc3C(=O)Nc3cccnc32)CC1 [Pirenzepine, reference compound] | – | – | – | – | – | 0.00126 µM | – | – | – | –

Now from value to molecule, other results behind:

Row | EC50 [1, 8] | Ki [2] | Ki [3] | Ki [4, 9] | EC50 [5, 10] | Kb [7] | SMILES | EC50 [1] | Ki [4] | EC50 [5] | Kb [6]
13 | 0.794 µM | 1 µM | 5.01 µM | 0.794 µM | 0.794 µM | – | CCCCCCC=Cc1conc1C1=CCCN(C)C1 [Compound 68B, 3-(4-Oct-1-enyl-isoxazol-3-yl)-1,2,5,6-tetrahydro-1-methylpyridine] | – | – | – | –
14 | 0.501 µM | 0.794 µM | 2.51 µM | 0.251 µM | 0.158 µM | – | CCCCC=Cc1c[nH]nc1C1=CCCN(C)C1 [Compound 47A, 3-(4-Hex-1-enyl-1H-pyrazol-3-yl)-1,2,5,6-tetrahydro-1-methylpyridine] | – | – | – | –
15 | 0.631 µM | 0.794 µM | 0.794 µM | 0.251 µM | 0.794 µM | – | CCCCCCC=Cc1c[nH]nc1C1=CCCN(C)C1 [Compound 47C, 3-(4-Oct-1-enyl-1H-pyrazol-3-yl)-1,2,5,6-tetrahydro-1-methylpyridine] | – | – | – | –
